Test results: patent publication US11285127B2, “Compositions and methods for lowering triglycerides without raising LDL-C levels in a subject on concomitant statin therapy” (Amarin Pharmaceuticals Ireland Limited, priority 2013, dated 2022)

Test system: patients with fasting triglyceride levels >200 mg/dl and <500 mg/dl despite statin therapy
Test: 12-week study: apolipoproteins (Apo A-1, Apo B, ratio) and lipoprotein(a)
Assay type: in vivo, human
Conditions: for Apo A1 Week 12 EP Median (IQR) / Apo B Week 12 EP Median (IQR) / Apo B/Apo A1 ratio Week 12 EP Median (IQR) / Lp (a) Week 12 EP Median (IQR) / Apo A1 Percent change from Baseline Median (IQR) / Apo B Percent change from Baseline Median (IQR) / Apo B/Apo A1 ratio Percent change from Baseline Median (IQR) / Lp (a) Percent change from Baseline Median (IQR) / Apo A1 Difference from placebo Estimated median / Apo B Difference from placebo Estimated median / Apo B/Apo A1 ratio Difference from placebo Estimated median / Lp (a) Difference from placebo Estimated median: MITT; for Apo A1 Percent change from Baseline Median (IQR) / Apo B Percent change from Baseline Median (IQR) / Apo B/Apo A1 ratio Percent change from Baseline Median (IQR) / Lp (a) Percent change from Baseline Median (IQR): Week 12 endpoint; for Apo A1 Difference from placebo Estimated median / Apo B Difference from placebo Estimated median / Apo B/Apo A1 ratio Difference from placebo Estimated median / Lp (a) Difference from placebo Estimated median: percent change from baseline to Week 12 endpoint
Text: Parameters (a)-(z) can be measured in accordance with any clinically acceptable methodology. For example, triglycerides, total cholesterol, HDL-C and fasting blood sugar can be sample from serum and analyzed using standard photometry techniques. VLDL-TG, LDL-C and VLDL-C can be calculated or determined using serum lipoprotein fractionation by preparative ultracentrifugation and subsequent quantitative analysis by refractometry or by analytic ultracentrifugal methodology. Apo A1, Apo B and hsCRP can be determined from serum using standard nephelometry techniques. Lipoprotein (a) can be determined from serum using standard turbidimetric immunoassay techniques. LDL particle number and particle size can be determined using nuclear magnetic resonance (NMR) spectrometry. Remnants lipoproteins and LDL-phospholipase A2 can be determined from EDTA plasma or serum and serum, respectively, using enzymatic immunoseparation techniques. Oxidized LDL, intercellular adhesion molecule-1 and interleukin-2 levels can be determined from serum using standard enzyme immunoassay techniques. These techniques are described in detail in standard textbooks, for example Tietz Fundamentals of Clinical Chemistry, 6th Ed. (Burtis, Ashwood and Borter Eds.), WB Saunders Company.
A multi-center, placebo-controlled, randomized, double-blind, 12-week study was performed to evaluate the efficacy and safety of >96% E-EPA in patients with fasting triglyceride levels >200 mg/dl and <500 mg/dl despite statin therapy (the mean of two qualifying entry values needed to be >185 mg/dl and at least one of the values needed to be >200 mg/dl). The primary objective of the study was to determine the efficacy of >96% E-EPA 2 g daily and 4 g daily, compared to placebo, in lowering fasting TG levels in patients with high risk for cardiovascular disease and with fasting TG levels 200 mg/dl and <500 mg/dl, despite treatment to LDL-C goal on statin therapy.
The primary efficacy variable for the double-blind treatment period was percent change in TG from baseline to Week 12 endpoint. The secondary efficacy variables for the double-blind treatment period included the following: • Percent changes in total cholesterol (TC), high-density lipoprotein cholesterol (HDL-C), LDL-C, calculated non-HDL-C, and very low-density lipoprotein cholesterol (VLDL-C) from baseline to Week 12 endpoint; • Percent change in very low-density lipoprotein TG from baseline to Week 12; • Percent changes in apolipoprotein A-I (Apo A-1), apolipoprotein B (Apo B), and Apo A-1/Apo B ratio from baseline to Week 12; • Percent changes in lipoprotein(a) from baseline to Week 12; • Percent changes in LDL particle number and size, measured by nuclear magnetic resonance, from baseline to Week 12; • Percent change in remnant-like particle cholesterol from baseline to Week 12; • Percent change in oxidized LDL from baseline to Week 12; • Changes in FPG and HbA1c from baseline to Week 12; • Change in insulin resistance, as assessed by the homeostasis model index insulin resistance, from baseline to Week 12; • Percent change in lipoprotein associated phospholipase A2 (Lp-PLA2) from baseline to Week 12; • Change in intracellular adhesion molecule-1 from baseline to Week 12; • Change in interleukin-2 from baseline to Week 12; • Change in plasminogen activator inhibitor-1 from baseline to Week 12. Note: this parameter will only be collected at sites with proper storage conditions; • Change in hsCRP from baseline to Week 12; and • Change in plasma concentration and red blood cell membrane content of fatty acid from baseline to Week 12 including EPA, docosapentaenoic acid (DPA), docosahexaenoic acid (DHA), arachidonic acid (AA), dihomo-γ-linolenic acid (DGLA), the ratio of EPA/AA, ratio of oleic acid/stearic acid (OA/SA), and the ratio of total omega-3 acids over total omega-6 acids. […]

[1] = IPE 4 g/day (n = 216), 12 weeks, patients with lipoprotein data

## CC/C=C\C/C=C\C/C=C\C/C=C\C/C=C\CCCC(=O)OCC [AMR101, ethyl eicosapentaenoate]
AMR101 2 g/d + statin
  Apo A1 Week 12 EP Median (IQR): 141.0 (26.0) mg/dL
  Apo B Week 12 EP Median (IQR): 95.0 (24.0) mg/dL
  Apo B/Apo A1 ratio Week 12 EP Median (IQR): 0.7 (0.2)
  Lp (a) Week 12 EP Median (IQR): 12.0 (33.0) mg/dL
  Apo A1 Percent change from Baseline Median (IQR): 2.0 (13.0) %
  Apo B Percent change from Baseline Median (IQR): 1.6 (20.7) %
  Apo B/Apo A1 ratio Percent change from Baseline Median (IQR): 0.1 (18.3) %
  Lp (a) Percent change from Baseline Median (IQR): 0.0 (24.9) %
  Apo A1 Difference from placebo Estimated median: −1.7%
  Apo B Difference from placebo Estimated median: −3.8%
  Apo B/Apo A1 ratio Difference from placebo Estimated median: −2.0%
  Lp (a) Difference from placebo Estimated median: 0.0%
AMR101 4 g/d + statin
  Apo A1 Week 12 EP Median (IQR): 137.0 (29.0) mg/dL
  Apo B Week 12 EP Median (IQR): 90.0 (25.0) mg/dL
  Apo B/Apo A1 ratio Week 12 EP Median (IQR): 0.7 (0.2)
  Lp (a) Week 12 EP Median (IQR): 9.0 (31.0) mg/dL
  Apo A1 Percent change from Baseline Median (IQR): −2.9 (12.6) %
  Apo B Percent change from Baseline Median (IQR): −2.2 (16.4) %
  Apo B/Apo A1 ratio Percent change from Baseline Median (IQR): −0.7 (20.3) %
  Lp (a) Percent change from Baseline Median (IQR): 0.0 (10.0) %
  Apo A1 Difference from placebo Estimated median: −6.9%
  Apo B Difference from placebo Estimated median: −9.3%
  Apo B/Apo A1 ratio Difference from placebo Estimated median: −2.4%
  Lp (a) Difference from placebo Estimated median: 0.0%
[1]
  Apo-B, Change From Baseline, % (median): −2.2%
  Apo-B, End of Treatment (median): 90.0 mg/dL
IPE 4 g/day vs placebo, 12 weeks, Hodges-Lehmann median
  Apo-B, Median Change From Baseline IPE 4 g/day vs Placebo, %: −8.8%
